From article PMC9910343 (ACS chemical neuroscience, 2022)
Where “and” joins values, the source holds several entries; their conditions need not be identical. Equal entries are not always repeated.

How the values were obtained:
[1] = Plasma and CSF pharmacokinetics after s.c. or i.v. administration; format: in vivo, rhesus monkeys; conditions: for Cmax of metabolite hydroxyvarenicline / AUC of metabolite hydroxyvarenicline: mean
[2] = rats; based on the unbound fraction; cited from earlier work
[3] = tested on: neurons expressing PSAM-GlyRs; conditions: systemic administration; rhesus monkeys; cited from earlier work
[4] = after uPSEM817 0.064 mg/kg i.v., CSF
[5] = after uPSEM817 0.064 mg/kg i.v., plasma
[6] = after uPSEM817 0.064 mg/kg s.c., plasma

SMILES | Tmax of metabolite hydroxyvarenicline [1, 4] | Cmax of metabolite hydroxyvarenicline [1, 4] | Tmax of metabolite hydroxyvarenicline [1, 5] | AUC of metabolite hydroxyvarenicline [1, 5] | Cmax of metabolite hydroxyvarenicline [1, 5] | Tmax of metabolite hydroxyvarenicline [1, 6] | AUC of metabolite hydroxyvarenicline [1, 6] | Cmax of metabolite hydroxyvarenicline [1, 6] | detection of hydroxyvarenicline as metabolite in CSF ([1]; after uPSEM817 0.064 mg/kg, CSF) | CSF:plasma ratio [2] | neuronal activity in neurons expressing PSAM-GlyRs [3] | detection of varenicline as metabolite in plasma or CSF ([1]; after uPSEM817 0.064 mg/kg s.c. or i.v.)
O=c1cnc2cc3c(cc2[nH]1)C1CNCC3C1 (stereo not drawn) [hydroxyvarenicline] | 1.5 h | 0.05 ng/mL | 3 h | 1.161 ng·h/mL | 0.87 ng/mL and 0.874 ng/mL | 1 h | 0.556 ng·h/mL | 0.55 ng/mL and 0.553 ng/mL | only detected in a single CSF sample for one animal | – | – | –
c1cnc2cc3c(cc2n1)[C@@H]1CNC[C@H]3C1 [varenicline] | – | – | – | – | – | – | – | – | – | 1.25 | reduces neuronal activity | not detected
